Reference: ChEMBL document CHEMBL1152283, “Design at the atomic level: generation of novel hybrid biaryloxazolidinones as promising new antibiotics” (Bioorg Med Chem Lett, 2008)
Converted amounts (≈) assume the structure as drawn.

Experiments:
Enterococcus faecalis = test: Antimicrobial activity against linezolid-resistant Enterococcus faecalis P5 by NCCLS method; assay type: functional
Haemophilus influenzae [1] = test: Antimicrobial activity against Haemophilus influenzae RD1 by NCCLS method; assay type: functional
Haemophilus influenzae [2] = test: Antimicrobial activity against Haemophilus influenzae 895 (AcrB-KO) by NCCLS method; assay type: functional
Escherichia coli [3] = test: Inhibition of protein synthesis in Escherichia coli by translation assay
Streptococcus pneumoniae = test: Antimicrobial activity against Streptococcus pneumoniae 02J1175 expressing mef(A) gene by NCCLS method; assay type: functional
Streptococcus pyogenes = test: Antimicrobial activity against Streptococcus pyogenes Msr 610 expressing erm(B) gene by NCCLS method; assay type: functional
Escherichia coli [4] = test: Inhibition of protein synthesis in Escherichia coli S30 extract by translation assay; assay type: functional

SMILES | MIC (Enterococcus faecalis) | MIC (Haemophilus influenzae [1]) | MIC (Haemophilus influenzae [2]) | IC50 (Escherichia coli [3]) | MIC (Streptococcus pneumoniae) | MIC (Streptococcus pyogenes) | IC50 (Escherichia coli [4])
CC(=O)NC[C@H]1CN(c2ccc(/C=C/CCCNC(=O)CCc3cccnc3)c(F)c2)C(=O)O1 | 32 µg/mL (≈ 68.3 µM) | > 128 µg/mL | 8 µg/mL (≈ 17.1 µM) | 16000 nM | 2 µg/mL (≈ 4.27 µM) | 2 µg/mL (≈ 4.27 µM) | 
CC(=O)NC[C@H]1CN(c2ccc(-c3ccc(CNC(=O)CCc4cccnc4)cc3)c(F)c2)C(=O)O1 | 16 µg/mL (≈ 32.6 µM) | > 128 µg/mL | 2 µg/mL (≈ 4.08 µM) | 580 nM | 0.5 µg/mL (≈ 1.02 µM) | 0.5 µg/mL (≈ 1.02 µM) | 
CC(=O)NC[C@H]1CN(c2ccc(N3CCC(CNC(=O)/C=C/c4c(C)[nH]c(=O)[nH]c4=O)CC3)c(F)c2)C(=O)O1 |  | > 128 µg/mL | 8 µg/mL (≈ 14.7 µM) |  | 4 µg/mL (≈ 7.37 µM) | 4 µg/mL (≈ 7.37 µM) | 260 nM
CC(=O)NC[C@H]1CN(c2ccc(-c3ccc(CNC(=O)/C=C/c4c(C)[nH]c(=O)[nH]c4=O)cc3)c(F)c2)C(=O)O1 | 16 µg/mL (≈ 29.9 µM) | > 128 µg/mL | ≤ 0.25 µg/mL | 30 nM | ≤ 0.25 µg/mL | ≤ 0.25 µg/mL | 
CC(=O)NC[C@H]1CN(c2ccc(/C=C/CCCNC(=O)/C=C/c3c(C)[nH]c(=O)[nH]c3=O)c(F)c2)C(=O)O1 | 32 µg/mL (≈ 62.3 µM) | > 128 µg/mL | 1 µg/mL (≈ 1.95 µM) | 30 nM | 1 µg/mL (≈ 1.95 µM) | 1 µg/mL (≈ 1.95 µM) | 
CC(=O)NC[C@H]1CN(c2ccc(N3CCOCC3)c(F)c2)C(=O)O1 [LINEZOLID] | 32 µg/mL (≈ 94.9 µM) | 16 µg/mL (≈ 47.4 µM) | 8 µg/mL (≈ 23.7 µM) |  |  | 1 µg/mL (≈ 2.96 µM) | 
CSC[S@@+]([O-])CC(CO)NC(=O)/C=C/c1c(C)[nH]c(=O)[nH]c1=O (some centres undefined) [SPARSOMYCIN] | > 128 µg/mL | 8 µg/mL (≈ 22.1 µM) | 8 µg/mL (≈ 22.1 µM) | ≤ 20 nM | 2 µg/mL (≈ 5.53 µM) | 2 µg/mL (≈ 5.53 µM) | 
